Numbers after ± are expanded uncertainties.
Experiment: of the first substance listed, at infinite dilution; xn = mol fraction of the nth substance listed
Settings: 298.15 K; 100 kPa; Liquid; isoperibol calorimeter; x1 = 0

CCCCOCCCN [3-butoxy-1-propanamine] + O
partial molar enthalpy: -7.294 ± 0.0574 kcal/mol

CCOCCCN [3-ethoxy-1-propanamine] + O
partial molar enthalpy: -6.582 ± 0.0526 kcal/mol

Reference: the NIST ThermoML archive (doi:10.1021/acs.jced.7b00900)
